This note sets out measurements from patent US9340590B2 (priority 2011, dated 2016).

In the assay the target is hNav1.7 (Homo sapiens, UniProt Q15858). The assay is described as follows: cell-based. It is filed as cell-based. The note with it: read-out: IWQ Use Nav1.7.

Read-outs that look alike come from different tables or passages of the source. Positions of bridges follow the written chain, without caps; N, C: chain ends. Non-standard residues stand in square brackets, D forms with d. Residues, ends and D or L forms follow the SMILES beside them. 1Nal = N[C@@H](Cc1cccc2ccccc12)C(=O)O

Chain of hNav1.7 (Q15858 whole entry, looked up): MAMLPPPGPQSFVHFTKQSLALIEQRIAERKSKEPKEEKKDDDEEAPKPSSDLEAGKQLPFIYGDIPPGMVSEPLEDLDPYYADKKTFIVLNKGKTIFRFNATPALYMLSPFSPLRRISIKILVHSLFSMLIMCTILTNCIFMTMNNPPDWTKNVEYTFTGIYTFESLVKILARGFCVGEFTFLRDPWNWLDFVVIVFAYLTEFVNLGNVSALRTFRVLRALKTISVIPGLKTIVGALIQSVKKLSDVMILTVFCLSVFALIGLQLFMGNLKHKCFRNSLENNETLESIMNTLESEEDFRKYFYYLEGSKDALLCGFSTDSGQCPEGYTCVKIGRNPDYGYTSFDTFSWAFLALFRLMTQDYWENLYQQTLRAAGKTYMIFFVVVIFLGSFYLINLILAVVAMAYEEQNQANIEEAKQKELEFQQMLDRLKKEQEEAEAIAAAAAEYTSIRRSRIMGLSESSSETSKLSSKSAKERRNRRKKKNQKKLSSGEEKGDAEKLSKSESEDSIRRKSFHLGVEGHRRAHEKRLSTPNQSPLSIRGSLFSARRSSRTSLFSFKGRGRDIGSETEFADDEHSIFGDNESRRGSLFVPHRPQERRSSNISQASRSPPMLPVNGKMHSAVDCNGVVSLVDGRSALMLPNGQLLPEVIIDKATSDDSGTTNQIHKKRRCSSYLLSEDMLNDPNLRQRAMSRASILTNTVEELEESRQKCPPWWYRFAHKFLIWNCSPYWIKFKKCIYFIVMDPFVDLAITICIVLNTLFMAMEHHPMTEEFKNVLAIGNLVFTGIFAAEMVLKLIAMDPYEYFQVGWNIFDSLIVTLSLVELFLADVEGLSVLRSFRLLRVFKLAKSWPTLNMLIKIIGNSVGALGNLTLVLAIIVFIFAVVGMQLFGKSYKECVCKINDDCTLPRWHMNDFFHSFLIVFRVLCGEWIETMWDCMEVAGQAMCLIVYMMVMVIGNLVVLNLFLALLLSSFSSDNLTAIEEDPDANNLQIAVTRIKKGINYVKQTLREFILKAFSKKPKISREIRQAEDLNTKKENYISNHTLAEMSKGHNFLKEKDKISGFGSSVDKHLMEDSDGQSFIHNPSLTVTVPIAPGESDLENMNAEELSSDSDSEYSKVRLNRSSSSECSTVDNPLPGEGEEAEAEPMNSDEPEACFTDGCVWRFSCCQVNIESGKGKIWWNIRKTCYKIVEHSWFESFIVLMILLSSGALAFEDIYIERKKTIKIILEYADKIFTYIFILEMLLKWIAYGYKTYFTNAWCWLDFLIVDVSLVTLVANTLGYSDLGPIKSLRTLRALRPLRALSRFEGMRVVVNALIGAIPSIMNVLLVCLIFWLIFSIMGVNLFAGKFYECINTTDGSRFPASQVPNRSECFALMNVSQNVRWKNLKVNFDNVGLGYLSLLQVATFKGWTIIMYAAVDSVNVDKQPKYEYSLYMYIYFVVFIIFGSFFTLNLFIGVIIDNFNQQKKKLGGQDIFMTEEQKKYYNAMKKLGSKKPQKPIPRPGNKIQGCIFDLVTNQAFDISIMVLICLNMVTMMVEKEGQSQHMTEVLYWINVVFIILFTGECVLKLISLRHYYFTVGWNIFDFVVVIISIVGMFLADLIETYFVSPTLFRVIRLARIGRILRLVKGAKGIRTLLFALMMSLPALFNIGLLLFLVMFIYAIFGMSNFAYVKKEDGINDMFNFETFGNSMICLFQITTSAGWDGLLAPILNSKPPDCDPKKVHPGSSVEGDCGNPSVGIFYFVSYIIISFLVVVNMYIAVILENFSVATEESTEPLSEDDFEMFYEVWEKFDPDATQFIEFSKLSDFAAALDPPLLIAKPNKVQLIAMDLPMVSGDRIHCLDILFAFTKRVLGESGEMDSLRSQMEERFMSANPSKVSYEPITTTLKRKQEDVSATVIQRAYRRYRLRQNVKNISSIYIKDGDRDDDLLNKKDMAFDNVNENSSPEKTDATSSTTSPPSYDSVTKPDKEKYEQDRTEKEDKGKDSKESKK

For `CC[C@H](C)[C@@H]1NC(=O)[C@@H]2CSSC[C@@H]3NC(=O)[C@H](C(C)C)NC(=O)[C@H](CC(C)C)NC(=O)[C@H](CC(N)=O)NC(=O)[C@@H]4CCCN4C(=O)[C@H](CCCNC(=N)N)NC(=O)[C@H](CSSC[C@H](NC(=O)[C@@H](N)CC(=O)O)C(=O)N[C@@H](CC(C)C)C(=O)NCC(=O)N[C@@H](Cc4ccccc4)C(=O)N[C@@H](CCSC)C(=O)N[C@@H](CCCNC(=N)N)C(=O)N[C@@H](CCCCN)C(=O)N2)NC(=O)[C@H](CSSC[C@@H](C(=O)N[C@@H](CCCCN)C(=O)N[C@@H](CCCNC(=N)N)C(=O)N[C@H](C(=O)N[C@@H](Cc2ccccc2)C(N)=O)C(C)C)NC(=O)[C@H](Cc2c[nH]c4ccccc24)NC(=O)[C@H](CCCCN)NC(=O)[C@H](Cc2c[nH]cn2)NC(=O)[C@H]([C@@H](C)O)NC(=O)[C@H](CCCNC(=N)N)NC(=O)[C@H](CO)NC3=O)NC(=O)[C@H](CCCCN)NC(=O)[C@H](CC(=O)O)NC(=O)[C@H](CC(N)=O)NC(=O)[C@H](CC(=O)O)NC(=O)[C@@H]2CCCN2C1=O` [compound 159] (H-DCLGFMRKCIPDNDKCCRPNLVCSRTHKWCKRVF-NH2; disulfide 2-17, 9-23, 16-30), the IC50 was determined as 1020 nM. Turning to `CC[C@H](C)[C@@H]1NC(=O)[C@@H]2CSSC[C@@H]3NC(=O)[C@H](C(C)C)NC(=O)[C@H](CC(C)C)NC(=O)[C@H](CC(N)=O)NC(=O)[C@@H]4CCCN4C(=O)[C@H](CCCNC(=N)N)NC(=O)[C@H](CSSC[C@H](NC(=O)[C@@H](N)CC(=O)O)C(=O)N[C@@H](CC(C)C)C(=O)NCC(=O)N[C@@H](Cc4ccccc4)C(=O)N[C@@H](CCSC)C(=O)N[C@@H](CCCNC(=N)N)C(=O)N[C@@H](CCCCN)C(=O)N2)NC(=O)[C@H](CSSC[C@@H](C(=O)N[C@@H](CCCCN)C(=O)N[C@@H](Cc2cccc4ccccc24)C(=O)N[C@H](C(=O)N[C@@H](Cc2ccccc2)C(N)=O)C(C)C)NC(=O)[C@H](Cc2c[nH]c4ccccc24)NC(=O)[C@H](CCCCN)NC(=O)[C@H](Cc2c[nH]cn2)NC(=O)[C@H]([C@@H](C)O)NC(=O)[C@H](CCCNC(=N)N)NC(=O)[C@H](CO)NC3=O)NC(=O)[C@H](CCCCN)NC(=O)[C@H](CC(=O)O)NC(=O)[C@H](CC(N)=O)NC(=O)[C@H](CC(=O)O)NC(=O)[C@@H]2CCCN2C1=O` [compound 167] (H-DCLGFMRKCIPDNDKCCRPNLVCSRTHKWCK[1Nal]VF-NH2; disulfide 2-17, 9-23, 16-30), the IC50 (Table 25, IonWorks Quattro, use, […]) is 4 nM. For `CSCC[C@@H]1NC(=O)[C@H](Cc2ccccc2)NC(=O)CNC(=O)[C@H](CC(C)C)NC(=O)[C@@H](NC(=O)[C@@H](N)CC(=O)O)CSSC[C@@H]2NC(=O)[C@@H]3CSSC[C@@H](C(=O)N[C@@H](CCCCN)C(=O)N[C@@H](Cc4ccc(O)cc4)C(=O)N[C@H](C(=O)N[C@@H](Cc4ccccc4)C(N)=O)C(C)C)NC(=O)[C@H](Cc4c[nH]c5ccccc45)NC(=O)[C@H](CCCCN)NC(=O)[C@H](Cc4c[nH]cn4)NC(=O)[C@H]([C@@H](C)O)NC(=O)[C@H](CCCNC(=N)N)NC(=O)[C@H](CO)NC(=O)[C@H](CSSC[C@H](NC(=O)[C@H](CCCCN)NC(=O)[C@H](CCCNC(=N)N)NC1=O)C(=O)N[C@@H](Cc1ccc(O)cc1)C(=O)N1CCC[C@H]1C(=O)N[C@@H](CC(=O)O)C(=O)N[C@@H](CC(N)=O)C(=O)N[C@@H](CC(=O)O)C(=O)N[C@@H](CCCCN)C(=O)N3)NC(=O)[C@H](C(C)C)NC(=O)[C@H](CC(C)C)NC(=O)[C@H](CC(N)=O)NC(=O)[C@@H]1CCCN1C(=O)[C@H](CCCNC(=N)N)NC2=O` [compound 299] (H-DCLGFMRKCYPDNDKCCRPNLVCSRTHKWCKYVF-NH2; disulfide 2-17, 9-23, 16-30), the IC50 (IonWorks Quattro, Use) amounted to 140 nM.

On to `CSCC[C@@H]1NC(=O)[C@H](Cc2ccccc2)NC(=O)CNC(=O)[C@H](CC(C)C)NC(=O)[C@@H](NC(=O)[C@@H](N)CC(=O)O)CSSC[C@@H]2NC(=O)[C@@H]3CSSC[C@@H](C(=O)N[C@@H](CCCCN)C(=O)N[C@@H](Cc4ccc(O)cc4)C(=O)N[C@H](C(=O)N[C@@H](Cc4ccccc4)C(N)=O)C(C)C)NC(=O)[C@H](Cc4c[nH]c5ccccc45)NC(=O)[C@H](CCCCN)NC(=O)[C@H](Cc4c[nH]cn4)NC(=O)[C@H]([C@@H](C)O)NC(=O)[C@H](CCCNC(=N)N)NC(=O)[C@H](CO)NC(=O)[C@H](CSSC[C@H](NC(=O)[C@H](CCCCN)NC(=O)[C@H](CCCNC(=N)N)NC1=O)C(=O)N[C@@H](C(C)C)C(=O)N1CCC[C@H]1C(=O)N[C@@H](CC(=O)O)C(=O)N[C@@H](CC(N)=O)C(=O)N[C@@H](CC(=O)O)C(=O)N[C@@H](CCCCN)C(=O)N3)NC(=O)[C@H](C(C)C)NC(=O)[C@H](CC(C)C)NC(=O)[C@H](CC(N)=O)NC(=O)[C@@H]1CCCN1C(=O)[C@H](CCCNC(=N)N)NC2=O` [compound 301] (H-DCLGFMRKCVPDNDKCCRPNLVCSRTHKWCKYVF-NH2; disulfide 2-17, 9-23, 16-30), for which the IC50 (IonWorks Quattro, Use) was 100 nM. On the same count and under the same terms, under `CSCC[C@@H]1NC(=O)[C@H](Cc2ccccc2)NC(=O)CNC(=O)[C@H](CC(C)C)NC(=O)[C@@H](NC(=O)[C@@H](N)CC(=O)O)CSSC[C@@H]2NC(=O)[C@@H]3CSSC[C@@H](C(=O)N[C@@H](CCCCN)C(=O)N[C@@H](Cc4ccc(O)cc4)C(=O)N[C@H](C(=O)N[C@@H](Cc4ccccc4)C(N)=O)C(C)C)NC(=O)[C@H](Cc4c[nH]c5ccccc45)NC(=O)[C@H](CCCCN)NC(=O)[C@H](Cc4c[nH]cn4)NC(=O)[C@H]([C@@H](C)O)NC(=O)[C@H](CCCNC(=N)N)NC(=O)[C@H](CO)NC(=O)[C@H](CSSC[C@H](NC(=O)[C@H](CCCCN)NC(=O)[C@H](CCCNC(=N)N)NC1=O)C(=O)N[C@@H](Cc1ccccc1)C(=O)N1CCC[C@H]1C(=O)N[C@@H](CC(=O)O)C(=O)N[C@@H](CC(N)=O)C(=O)N[C@@H](CC(=O)O)C(=O)N[C@@H](CCCCN)C(=O)N3)NC(=O)[C@H](C(C)C)NC(=O)[C@H](CC(C)C)NC(=O)[C@H](CC(N)=O)NC(=O)[C@@H]1CCCN1C(=O)[C@H](CCCNC(=N)N)NC2=O` [compound 302] (H-DCLGFMRKCFPDNDKCCRPNLVCSRTHKWCKYVF-NH2; disulfide 2-17, 9-23, 16-30) stands 110 nM; under `CSCC[C@@H]1NC(=O)[C@H](Cc2ccccc2)NC(=O)CNC(=O)[C@H](CC(C)C)NC(=O)[C@@H](NC(=O)[C@@H](N)CC(=O)O)CSSC[C@@H]2NC(=O)[C@@H]3CSSC[C@@H](C(=O)N[C@@H](CCCCN)C(=O)N[C@@H](Cc4ccc(O)cc4)C(=O)N[C@H](C(=O)N[C@@H](Cc4ccccc4)C(N)=O)C(C)C)NC(=O)[C@H](Cc4c[nH]c5ccccc45)NC(=O)[C@H](CCCCN)NC(=O)[C@H](Cc4c[nH]cn4)NC(=O)[C@H]([C@@H](C)O)NC(=O)[C@H](CCCNC(=N)N)NC(=O)[C@H](CO)NC(=O)[C@H](CSSC[C@H](NC(=O)[C@H](CCCCN)NC(=O)[C@H](CCCNC(=N)N)NC1=O)C(=O)N[C@@H](Cc1c[nH]cn1)C(=O)N1CCC[C@H]1C(=O)N[C@@H](CC(=O)O)C(=O)N[C@@H](CC(N)=O)C(=O)N[C@@H](CC(=O)O)C(=O)N[C@@H](CCCCN)C(=O)N3)NC(=O)[C@H](C(C)C)NC(=O)[C@H](CC(C)C)NC(=O)[C@H](CC(N)=O)NC(=O)[C@@H]1CCCN1C(=O)[C@H](CCCNC(=N)N)NC2=O` [compound 304] (H-DCLGFMRKCHPDNDKCCRPNLVCSRTHKWCKYVF-NH2; disulfide 2-17, 9-23, 16-30), 50 nM; under `CSCC[C@@H]1NC(=O)[C@H](Cc2ccccc2)NC(=O)CNC(=O)[C@H](CC(C)C)NC(=O)[C@@H](NC(=O)[C@@H](N)CC(=O)O)CSSC[C@@H]2NC(=O)[C@@H]3CSSC[C@@H](C(=O)N[C@@H](CCCCN)C(=O)N[C@@H](Cc4ccc(O)cc4)C(=O)N[C@H](C(=O)N[C@@H](Cc4ccccc4)C(N)=O)C(C)C)NC(=O)[C@H](Cc4c[nH]c5ccccc45)NC(=O)[C@H](CCCCN)NC(=O)[C@H](Cc4c[nH]cn4)NC(=O)[C@H]([C@@H](C)O)NC(=O)[C@H](CCCNC(=N)N)NC(=O)[C@H](CO)NC(=O)[C@H](CSSC[C@H](NC(=O)[C@H](CCCCN)NC(=O)[C@H](CCCNC(=N)N)NC1=O)C(=O)N[C@@H](CO)C(=O)N1CCC[C@H]1C(=O)N[C@@H](CC(=O)O)C(=O)N[C@@H](CC(N)=O)C(=O)N[C@@H](CC(=O)O)C(=O)N[C@@H](CCCCN)C(=O)N3)NC(=O)[C@H](C(C)C)NC(=O)[C@H](CC(C)C)NC(=O)[C@H](CC(N)=O)NC(=O)[C@@H]1CCCN1C(=O)[C@H](CCCNC(=N)N)NC2=O` [compound 305] (H-DCLGFMRKCSPDNDKCCRPNLVCSRTHKWCKYVF-NH2; disulfide 2-17, 9-23, 16-30), 50 nM.

As for `CSCC[C@@H]1NC(=O)[C@H](Cc2ccccc2)NC(=O)CNC(=O)[C@H](CC(C)C)NC(=O)[C@@H](NC(=O)[C@@H](N)CC(=O)O)CSSC[C@@H]2NC(=O)[C@@H]3CSSC[C@@H](C(=O)N[C@@H](CCCCN)C(=O)N[C@@H](Cc4ccc(O)cc4)C(=O)N[C@H](C(=O)N[C@@H](Cc4ccccc4)C(N)=O)C(C)C)NC(=O)[C@H](Cc4c[nH]c5ccccc45)NC(=O)[C@H](CCCCN)NC(=O)[C@H](Cc4c[nH]cn4)NC(=O)[C@H]([C@@H](C)O)NC(=O)[C@H](CCCNC(=N)N)NC(=O)[C@H](CO)NC(=O)[C@H](CSSC[C@H](NC(=O)[C@H](CCCCN)NC(=O)[C@H](CCCNC(=N)N)NC1=O)C(=O)N[C@@H]([C@@H](C)O)C(=O)N1CCC[C@H]1C(=O)N[C@@H](CC(=O)O)C(=O)N[C@@H](CC(N)=O)C(=O)N[C@@H](CC(=O)O)C(=O)N[C@@H](CCCCN)C(=O)N3)NC(=O)[C@H](C(C)C)NC(=O)[C@H](CC(C)C)NC(=O)[C@H](CC(N)=O)NC(=O)[C@@H]1CCCN1C(=O)[C@H](CCCNC(=N)N)NC2=O` [compound 309] (H-DCLGFMRKCTPDNDKCCRPNLVCSRTHKWCKYVF-NH2; disulfide 2-17, 9-23, 16-30), where the note is “IonWorks Quattro, Use”, the IC50 is 100 nM.
